# From PMC7246325 (Drug Design, Development and Therapy, 2020)
# Like-named read-outs stand apart in the source and are kept apart here.
# Experiments:
# [1] = cancer patients; cited from earlier work
# CYP3A4 [2] = molecular target: T1, CYP3A4 (Homo sapiens, UniProt P08684); experiment: In vitro CYP3A4 inhibition; format: biochemical
# Safety assessment = format: in vivo, patients with advanced solid tumors; conditions: 23 patients
# CYP3A4 [3] = molecular target: T1, CYP3A4; experiment: In vitro CYP3A4 inhibition; format: biochemical; remark: listed apart in the source
# CYP3A4 [4] = conditions: among human CYP450 isoenzymes; cited from earlier work
# CYP2C9 [5] = conditions: among human CYP450 isoenzymes; cited from earlier work
# CYP3A4 [6] = molecular target: T1, CYP3A4; experiment: Predicted AUC ratios for CYP3A4 substrates; conditions: dose (750 mg)/250 mL
# CYP2C9 [7] = molecular target: CYP2C9 (Homo sapiens, UniProt P11712); experiment: In vitro CYP2C9 inhibition; format: biochemical
# CYP2C9 (Homo sapiens, UniProt P11712), sequence (P11712 whole entry): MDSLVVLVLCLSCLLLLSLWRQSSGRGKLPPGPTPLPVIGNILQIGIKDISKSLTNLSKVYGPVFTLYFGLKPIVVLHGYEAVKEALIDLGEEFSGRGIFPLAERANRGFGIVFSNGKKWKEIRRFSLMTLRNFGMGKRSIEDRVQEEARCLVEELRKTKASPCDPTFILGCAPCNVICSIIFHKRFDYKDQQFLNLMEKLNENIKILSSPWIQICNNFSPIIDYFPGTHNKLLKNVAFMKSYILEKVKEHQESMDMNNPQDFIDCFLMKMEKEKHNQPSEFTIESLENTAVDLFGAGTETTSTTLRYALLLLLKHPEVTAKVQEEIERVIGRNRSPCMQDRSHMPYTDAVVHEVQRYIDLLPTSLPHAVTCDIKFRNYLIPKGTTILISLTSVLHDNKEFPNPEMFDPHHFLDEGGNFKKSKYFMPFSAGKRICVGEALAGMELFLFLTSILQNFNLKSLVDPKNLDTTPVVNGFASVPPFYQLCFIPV
# [8] = warfarin 3 mg, apatinib 750 mg daily, vs single administration
# [9] = any grade, 750 mg apatinib daily
# T1 sequence (P08684 whole entry): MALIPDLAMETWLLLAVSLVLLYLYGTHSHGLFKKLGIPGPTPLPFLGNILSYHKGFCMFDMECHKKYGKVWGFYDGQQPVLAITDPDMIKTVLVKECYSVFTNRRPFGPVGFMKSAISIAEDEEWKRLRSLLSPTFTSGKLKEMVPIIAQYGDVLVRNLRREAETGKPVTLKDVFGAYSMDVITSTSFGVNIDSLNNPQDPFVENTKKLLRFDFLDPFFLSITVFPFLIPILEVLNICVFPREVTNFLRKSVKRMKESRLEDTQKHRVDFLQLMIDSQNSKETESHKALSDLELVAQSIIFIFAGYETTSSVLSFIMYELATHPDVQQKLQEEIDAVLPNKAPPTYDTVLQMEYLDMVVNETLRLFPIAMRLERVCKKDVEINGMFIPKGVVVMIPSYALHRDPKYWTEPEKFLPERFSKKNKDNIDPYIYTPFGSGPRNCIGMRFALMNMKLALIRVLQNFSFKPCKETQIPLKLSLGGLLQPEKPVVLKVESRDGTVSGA
structure (smiles),measurement,setting,value
"CC(=O)C[C@@H](c1ccccc1)c1c(O)c2ccccc2oc1=O [S-Warfarin, S-warfarin]",AUC0-∞,"3 mg warfarin oral + 750 mg apatinib daily, N=20, GMean (CV%)",12600 (35.0) h×ng/mL
same,Tmax,"3 mg warfarin oral + 750 mg apatinib daily, N=20, median (range)",1.00 (0.500–3.00) h
same,AUC0-∞,"3 mg warfarin oral, alone, N=23, GMean (CV%)",5190 (26.8) h×ng/mL
same,Tmax,"3 mg warfarin oral, alone, N=23, median (range)",0.500 (0.500–3.00) h
same,Difference of Tmax before and after coadministration of apatinib,"S-warfarin, Wilcoxon signed-rank test",no significant difference
same,Increase of AUC0–t (exposure) on coadministration with apatinib,[8],92%
same,Increase of Cmax on coadministration with apatinib,[8],24%
N#CC1(c2ccc(NC(=O)c3cccnc3NCc3ccncc3)cc2)CCCC1 [apatinib],t1/2,[1],8.01 to 10.2 h
same,IC50,CYP3A4 [2],830 nM
same,Ki,CYP3A4 [2],270 nM
same,Incidence of bilirubin increased (adverse event related to apatinib),Safety assessment; [9],21.7%
same,Incidence of fatigue (adverse event related to apatinib),Safety assessment; [9],21.7%
same,Incidence of hand-foot syndrome (adverse event related to apatinib),Safety assessment; [9],17.4%
same,Incidence of headache (adverse event related to apatinib),Safety assessment; [9],47.8%
same,Incidence of hypertension (adverse event related to apatinib),Safety assessment; [9],73.9%
same,Incidence of leukopenia (adverse event related to apatinib),Safety assessment; [9],21.7%
same,Incidence of proteinuria (adverse event related to apatinib),Safety assessment; [9],26.1%
same,Incidence of thrombocytopenia (adverse event related to apatinib),Safety assessment; [9],30.4%
same,Incidence of grade 3/4 drug-related hypertension,"Safety assessment; grade 3/4, 750 mg apatinib daily",17.4%
same,IC50,CYP3A4 [3],1800 nM
same,Ki,CYP3A4 [3],710 nM
same,Contribution of CYP3A4 to the in vitro (oxidative) metabolism,CYP3A4 [4],62.6%
same,Contribution of CYP2C9 to the oxidative metabolism,CYP2C9 [5],13.1%
same,Igut,CYP3A4 [6],6078 µM
same,IC50,CYP2C9 [7],440 nM
same,Ki,CYP2C9 [7],310 nM
